Measurements reported in patent publication US20040063681A1, “Methods for using gold (III) complexes as anti-tumor and anti-HIV agents” (priority 2002, published 2004).
pIC50: −log10 of the molar value.

Columns and labels:
[1] = 1H-NMR stability experiments with GSH; format: physicochemical; settings: 72 h
Protocol: ^1H-NMR experiments. […] The pH was adjusted to 7.4 with NaOD, and the solution was degassed for 10 min by bubbling with nitrogen to minimize oxidation of GSH. Similar experimental setup was done for Complex 1j, except this analysis was carried out in D2O only. The electronic spectra of the resulting mixtures was then monitored for 72 h.
It is known that the chemical shifts of the pyrrolic protons are sensitive to the oxidation states of the gold center, and reduction of Au(III) to Au(I) or Au(0) is expected to be accompanied by spectral changes in the pyrrolic region.
Glutathione can be oxidized to form a disulfide bridged dimer (GSSG) with a mild oxidizing agent such as gold(III) complex. A previous study by Sun et al., Eur. J. Biochem. 267:5450-5457 (2000) established that GSSG is characterized by a doublet absorption peak at δH 3.30 ppm, assignable to β-CH2 group as depicted in Scheme 5. Scheme 5. Characteristic proton resonance absorptions for (a) GSH and (b) GSSG in D2O [drawing 29]
The results of the NMR studies indicate that illustrative Complexes 1a-1k are stable under physiologically relevant conditions.

[2] = test system: human cancer cell lines (HL-60, HepG2, HeLa, KB-3-1, KB-V1, SUNE1, CNE1); format: cell-based; settings: MTT, all studied cell lines; read-out: IC50 values over the panel of cancer cell lines
Excerpt: Human promyelocytic leukemia (HL-60), human hepatocellular carcinoma (HepG2), Human cervix epitheloid carcinoma cells (HeLa) and human oral epidermoid carcinoma cells (KB-3-1), were obtained from American Type Culture Collection (ATCC) (Rockville, Md.). The multi-drug-resistant variant KB-V1 cell line was obtained by stepwise selections for vinblastine resistance as described by Shen et al., J. Biol. Chem. 261:7762-7770 (1986)], and was generously provided by Dr Michael Gottesman (NIH, Bethesda, Md.). Human nasopharyngeal carcinoma cells (SUNE1 and its cisplatin resistance variant, CNE1) were derived from poorly differentiated NPC in Chinese patients as described by Gu et al., Chin. J. Cancer 2:270-272 (1983), and were generously provided by Dr S. W. Tsao (The University of Hong Kong, Hong Kong, PRC). Cell culture flasks and 96 well microtitre plates were from Nalge Nunc hit. Culture medium, other medium constituents and phosphate buffered saline (PBS) were obtained from Gibco BRL (Rockville, Md.). […]
The anti-cancer activities of the gold(III) porphyrin complexes were evaluated toward some established human cancer cell lines: promyelocytic leukemia (HL-60), hepatocellular carcinoma (HepG2), cervix epitheloid carcinoma (HeLa), epidermoid carcinoma (KB-3-1) and its multi-drug resistant variant (KB-V1), nasopharyngeal carcinoma (SUNE1) and its cisplatin-resistant variant (CNE1). […]

Compound: C1=Cc2nc1c(-c1ccccc1)c1ccc([n-]1)c(-c1ccccc1)c1nc(c(-c3ccccc3)c3ccc([n-]3)c2-c2ccccc2)C=C1.[Au+3].[Cl-] [Complex 1a]
- 1H NMR spectral changes ([1]; GSH (2 mM), D2O/CD3CN (9:1 v/v), room temperature): no significant spectral changes were observed
- changes of 1H NMR spectral pattern in the aromatic region (δH 7.2-8.4 ppm) ([1]; with GSH): did not observe any significant changes of the spectral pattern
- pIC50 [2]: 6.10 to 7.00
